Experimental data as given in ChEMBL document CHEMBL4346732, “Inhibition of neutral lipid synthesis by avarols from a marine sponge” (Bioorg Med Chem Lett, 2019).

Assays:
[1] = Inhibition of DGAT-mediated oleic acid-induced [14C]neutral lipid synthesis in CHOK1 cells after 6 hrs using [14C]oleic acid by […]; type: cell-based; details: Cricetulus griseus, CHO-K1, 6 h
CHO-K1 = test: Cytotoxicity against CHOK1 cells assessed as reduction in cell viability; type: cell-based; details: Cricetulus griseus
[2] = Inhibition of SOAT-mediated oleic acid-induced [14C]cholesterol ester accumulation in CHOK1 cells after 6 hrs using [14C]oleic acid by […]; type: cell-based; details: Cricetulus griseus, CHO-K1, 6 h
[3] = molecular target: T1, Sterol O-acyltransferase 2 (Chlorocebus aethiops, UniProt O77759); test: Inhibition of African green monkey SOAT2 expressed in CHO cells using [1-14C]oleic acid incubated for 6 hrs by TLC based method; type: cell-based
T1 sequence (O77759 whole entry): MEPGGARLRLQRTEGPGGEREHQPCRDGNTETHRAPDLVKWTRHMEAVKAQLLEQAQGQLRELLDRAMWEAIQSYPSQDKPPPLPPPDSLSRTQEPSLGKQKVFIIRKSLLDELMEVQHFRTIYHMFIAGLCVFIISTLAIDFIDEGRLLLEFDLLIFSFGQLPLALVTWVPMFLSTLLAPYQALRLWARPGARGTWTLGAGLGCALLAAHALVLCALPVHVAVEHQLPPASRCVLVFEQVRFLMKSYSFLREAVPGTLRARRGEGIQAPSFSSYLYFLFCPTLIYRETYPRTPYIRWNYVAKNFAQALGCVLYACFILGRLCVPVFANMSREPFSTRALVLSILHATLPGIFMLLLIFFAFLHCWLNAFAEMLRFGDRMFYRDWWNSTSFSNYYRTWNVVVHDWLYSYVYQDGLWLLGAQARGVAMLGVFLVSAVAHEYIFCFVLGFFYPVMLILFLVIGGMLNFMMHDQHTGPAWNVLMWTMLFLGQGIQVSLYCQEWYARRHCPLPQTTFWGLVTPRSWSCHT

[4] = molecular target: T2, Sterol O-acyltransferase 1 (Cricetulus griseus, UniProt Q60457); test: Inhibition of SOAT1 in CHO cell microsomal fraction using [1-14C]oleoyl-CoA as substrate measured after 5 mins by TLC based method
T2 sequence (Q60457 whole entry): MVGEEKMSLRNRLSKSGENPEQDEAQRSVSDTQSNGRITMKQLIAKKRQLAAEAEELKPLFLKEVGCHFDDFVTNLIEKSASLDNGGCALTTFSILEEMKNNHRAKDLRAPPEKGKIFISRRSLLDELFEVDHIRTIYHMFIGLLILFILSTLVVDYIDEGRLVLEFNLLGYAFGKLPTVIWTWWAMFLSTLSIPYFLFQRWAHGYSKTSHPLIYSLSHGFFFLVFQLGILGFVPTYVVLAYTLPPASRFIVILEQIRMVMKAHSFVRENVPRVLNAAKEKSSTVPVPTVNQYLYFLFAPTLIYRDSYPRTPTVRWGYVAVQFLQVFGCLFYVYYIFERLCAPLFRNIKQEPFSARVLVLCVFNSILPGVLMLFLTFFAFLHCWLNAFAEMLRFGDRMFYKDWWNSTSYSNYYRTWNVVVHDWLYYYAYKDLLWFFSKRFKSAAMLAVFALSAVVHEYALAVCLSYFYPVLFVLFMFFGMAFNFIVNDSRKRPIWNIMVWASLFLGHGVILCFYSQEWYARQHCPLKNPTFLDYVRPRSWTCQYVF

[5] = Inhibition of SOAT2 in CHO cell microsomal fraction using [1-14C]oleoyl-CoA as substrate measured after 5 mins by TLC based method; design: species or system Cricetulus griseus
[6] = Inhibition of SOAT in CHOK1 cell microsomal fraction using [1-14C]oleoyl-CoA as substrate measured after 5 mins by TLC based method; design: species or system Cricetulus griseus
[7] = molecular target: T3, Sterol O-acyltransferase 1 (Chlorocebus aethiops, UniProt O77760); test: Inhibition of African green monkey SOAT1 expressed in CHO cells using [1-14C]oleic acid incubated for 6 hrs by TLC based method; type: cell-based
T3 sequence (O77760 whole entry): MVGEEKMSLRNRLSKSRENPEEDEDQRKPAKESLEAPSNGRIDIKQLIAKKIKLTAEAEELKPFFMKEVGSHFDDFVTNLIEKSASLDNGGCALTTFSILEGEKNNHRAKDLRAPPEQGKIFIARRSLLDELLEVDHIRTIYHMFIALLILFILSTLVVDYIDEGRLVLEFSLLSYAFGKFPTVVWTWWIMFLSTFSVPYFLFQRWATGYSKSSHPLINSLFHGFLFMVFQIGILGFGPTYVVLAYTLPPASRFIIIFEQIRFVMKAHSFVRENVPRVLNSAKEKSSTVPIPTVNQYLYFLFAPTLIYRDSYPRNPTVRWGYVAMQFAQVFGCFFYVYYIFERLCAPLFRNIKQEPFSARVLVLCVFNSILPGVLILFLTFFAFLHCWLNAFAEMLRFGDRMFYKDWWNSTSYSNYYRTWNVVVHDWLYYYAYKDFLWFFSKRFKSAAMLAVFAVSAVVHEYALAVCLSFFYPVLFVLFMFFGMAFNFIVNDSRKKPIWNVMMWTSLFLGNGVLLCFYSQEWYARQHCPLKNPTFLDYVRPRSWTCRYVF

[8] = Inhibition of DGAT in CHOK1 cell microsomal fraction using [14C]palmitoyl-CoA as substrate measured after 15 mins TLC based method; design: species or system Cricetulus griseus

SMILES	IC50 [1] [µM]	IC50 [2] [µM]	IC50 [3] [µM]	IC50 [4] [µM]	IC50 [5] [µM]	IC50 [6] [µM]	IC50 [7] [µM]	IC50 [8] [µM]	IC50 (CHO-K1) [µM]
CC(=O)Oc1ccc(O)c(C[C@]2(C)[C@@H](C)CC[C@]3(C)C(C)=CCC[C@@H]23)c1	> 27.3	23.1	–	–	–	–	–	–	> 27.3
COc1ccc(O)c(C[C@]2(C)[C@@H](C)CC[C@]3(C)C(C)=CCC[C@@H]23)c1	> 29.6	11.4	–	–	–	–	–	–	> 29.6
C=C1CCC[C@H]2[C@](C)(Cc3cc(O)ccc3OC(C)=O)[C@@H](C)CC[C@]12C	> 27.3	11.9	–	–	–	–	–	–	> 27.3
CC(=O)Oc1ccc(O)cc1C[C@]1(C)[C@@H](C)CC[C@]2(C)C(C)=CCC[C@@H]12	> 27.3	13.7	–	–	–	–	–	–	> 27.3
C=C1CCC[C@H]2[C@](C)(Cc3cc(OC)ccc3O)[C@@H](C)CC[C@]12C	> 29.6	10.4	–	–	–	–	–	–	> 29.6
CC1=CCC[C@H]2[C@]3(C)Cc4cc(O)ccc4O[C@]3(C)CC[C@]12C	> 31.1	13.9	–	–	–	–	–	–	> 31.1
C=C1CCC[C@H]2[C@](C)(Cc3cc(OC(C)=O)ccc3OC(C)=O)[C@@H](C)CC[C@]12C	> 24.4	10.8	–	–	–	–	–	–	> 24.4
C=C1CCC[C@H]2[C@](C)(Cc3cc(OC(C)=O)ccc3O)[C@@H](C)CC[C@]12C	> 27.3	16	–	–	–	–	–	–	> 27.3

More lines, main results first:

IC50 [1] [µM]	IC50 [2] [µM]	IC50 [3] [µM]	IC50 [4] [µM]	IC50 [5] [µM]	IC50 [6] [µM]	IC50 [7] [µM]	IC50 [8] [µM]	SMILES	IC50 (CHO-K1) [µM]
27.5	13.2	–	–	–	–	–	–	CC1=CCC[C@H]2[C@](C)(CC3=CC(=O)C=C(N)C3=O)[C@@H](C)CC[C@]12C	> 30.9
> 22.8	11	–	–	–	–	–	–	C=C1CCC[C@H]2[C@](C)(Cc3cc(OC(=O)CC)ccc3OC(=O)CC)[C@@H](C)CC[C@]12C	> 22.8
6.8	5.74	14.8	12	8.1	7.31	14.2	20	CC1=CCC[C@H]2[C@](C)(Cc3cc(O)ccc3O)[C@@H](C)CC[C@]12C [AVAROL]	> 30.9
23.5	16.5	–	–	–	–	–	–	CC(=O)Oc1ccc(OC(C)=O)c(C[C@]2(C)[C@@H](C)CC[C@]3(C)C(C)=CCC[C@@H]23)c1	> 24.4
13.5	16.7	–	–	–	–	–	–	CCC(=O)Oc1ccc(OC(=O)CC)c(C[C@]2(C)[C@@H](C)CC[C@]3(C)C(C)=CCC[C@@H]23)c1	> 22.8
14.2	11	19.1	32	14	15.6	19.2	44.3	C=C1CCC[C@H]2[C@](C)(Cc3cc(O)ccc3O)[C@@H](C)CC[C@]12C	> 30.9
